In the CheMixHub viscosity set:
Values joined by “and” are separate entries in the source; they are usually repeats but may differ in a detail not shown here. Equal entries are not always repeated.

Assay: xn = mol fraction of the nth substance listed

C1C[C@@H]2[C@H]3CC[C@H](C3)[C@@H]2C1 + CCCCCCCCCC
viscosity
Settings | 293.15 K | 298.15 K | 303.15 K | 308.15 K | 313.15 K | 318.15 K | 323.15 K
100 kPa, x1 = 0.1005 | 0.989 mPa·s and 0.992 mPa·s | 0.921 mPa·s | 0.855 mPa·s and 0.858 mPa·s | 0.8 mPa·s and 0.803 mPa·s | 0.75 mPa·s and 0.754 mPa·s | 0.706 mPa·s and 0.709 mPa·s | 0.666 mPa·s and 0.669 mPa·s
100 kPa, x1 = 0.2006 | 1.074 mPa·s and 1.083 mPa·s | 0.993 mPa·s and 1.002 mPa·s | 0.925 mPa·s and 0.931 mPa·s | 0.863 mPa·s and 0.869 mPa·s | 0.808 mPa·s and 0.813 mPa·s | 0.759 mPa·s and 0.764 mPa·s | 0.715 mPa·s and 0.72 mPa·s
100 kPa, x1 = 0.3006 | 1.196 mPa·s | 1.105 mPa·s | 1.023 mPa·s | 0.949 mPa·s | 0.885 mPa·s | 0.828 mPa·s | 0.778 mPa·s
100 kPa, x1 = 0.3043 | 1.18 mPa·s | 1.09 mPa·s | 1.013 mPa·s | 0.943 mPa·s | 0.88 mPa·s | 0.825 mPa·s | 0.777 mPa·s
100 kPa, x1 = 0.3995 | 1.297 mPa·s | 1.195 mPa·s | 1.105 mPa·s | 1.027 mPa·s | 0.958 mPa·s | 0.897 mPa·s | 0.841 mPa·s
100 kPa, x1 = 0.4006 | 1.306 mPa·s | 1.203 mPa·s | 1.113 mPa·s | 1.033 mPa·s | 0.964 mPa·s | 0.902 mPa·s | 0.848 mPa·s
100 kPa, x1 = 0.4977 | 1.442 mPa·s | 1.327 mPa·s | 1.226 mPa·s | 1.137 mPa·s | 1.057 mPa·s | 0.988 mPa·s | 0.925 mPa·s
100 kPa, x1 = 0.4997 | 1.45 mPa·s | 1.333 mPa·s | 1.232 mPa·s | 1.142 mPa·s | 1.063 mPa·s | 0.99 mPa·s | 0.927 mPa·s
100 kPa, x1 = 0.5986 | 1.619 mPa·s | 1.486 mPa·s | 1.37 mPa·s | 1.267 mPa·s | 1.176 mPa·s | 1.096 mPa·s | 1.023 mPa·s
100 kPa, x1 = 0.6007 | 1.629 mPa·s | 1.495 mPa·s | 1.378 mPa·s | 1.275 mPa·s | 1.184 mPa·s | 1.103 mPa·s | 1.031 mPa·s
100 kPa, x1 = 0.7 | 1.859 mPa·s | 1.7 mPa·s | 1.562 mPa·s | 1.441 mPa·s | – | 1.238 mPa·s | 1.155 mPa·s
100 kPa, x1 = 0.7001 | 1.849 mPa·s | 1.692 mPa·s | 1.555 mPa·s | 1.435 mPa·s | – | 1.234 mPa·s | 1.15 mPa·s
100 kPa, x1 = 0.7963 | 2.117 mPa·s | 1.938 mPa·s | 1.776 mPa·s | 1.634 mPa·s | 1.51 mPa·s | 1.398 mPa·s | 1.299 mPa·s
100 kPa, x1 = 0.8002 | 2.153 mPa·s | 1.963 mPa·s | 1.798 mPa·s | 1.655 mPa·s | – | 1.413 mPa·s | 1.313 mPa·s
100 kPa, x1 = 0.8994 | 2.512 mPa·s | 2.284 mPa·s | 2.086 mPa·s | 1.914 mPa·s | 1.763 mPa·s | 1.629 mPa·s | 1.511 mPa·s
100 kPa, x1 = 0.8995 | 2.525 mPa·s | 2.294 mPa·s | 2.093 mPa·s | 1.918 mPa·s | 1.765 mPa·s | 1.631 mPa·s | 1.513 mPa·s
101 kPa, x2 = 0.4893 | 1.525 mPa·s | – | – | – | – | – | –
101 kPa, x2 = 0.6905 | 1.245 mPa·s | – | – | – | – | – | –

O=S(=O)([O-])[O-].[O]=[V+2] + O
viscosity, 100 kPa
Settings | 293.15 K | 298.15 K | 303.15 K | 308.15 K | 313.15 K | 318.15 K | 323.15 K
x1 = 0.000898 | 1.035 mPa·s | 0.9204 mPa·s | 0.8258 mPa·s | 0.7466 mPa·s | 0.6802 mPa·s | 0.6242 mPa·s | 0.576 mPa·s
x1 = 0.00129 | 1.048 mPa·s | 0.9314 mPa·s | 0.836 mPa·s | 0.7558 mPa·s | 0.688 mPa·s | 0.6311 mPa·s | 0.5827 mPa·s
x1 = 0.00163 | 1.068 mPa·s | 0.9499 mPa·s | 0.8519 mPa·s | 0.7707 mPa·s | 0.7015 mPa·s | 0.6439 mPa·s | 0.5926 mPa·s
x1 = 0.002247 | 1.089 mPa·s | 0.9678 mPa·s | 0.8664 mPa·s | 0.7814 mPa·s | – | – | –
x1 = 0.002326 | 1.101 mPa·s | 0.978 mPa·s | 0.8762 mPa·s | 0.7911 mPa·s | 0.7207 mPa·s | 0.6594 mPa·s | 0.6101 mPa·s
x1 = 0.002883 | 1.132 mPa·s | 1.005 mPa·s | 0.8997 mPa·s | 0.8136 mPa·s | 0.7379 mPa·s | 0.6736 mPa·s | 0.6205 mPa·s
x1 = 0.003583 | 1.154 mPa·s | 1.024 mPa·s | 0.9168 mPa·s | 0.8267 mPa·s | 0.7514 mPa·s | 0.6872 mPa·s | 0.6348 mPa·s
x1 = 0.004098 | 1.174 mPa·s | 1.042 mPa·s | 0.9321 mPa·s | 0.8405 mPa·s | 0.7626 mPa·s | 0.6972 mPa·s | 0.6409 mPa·s
x1 = 0.004417 | 1.19 mPa·s | – | 0.9437 mPa·s | 0.8499 mPa·s | 0.7718 mPa·s | 0.7049 mPa·s | 0.6484 mPa·s
x1 = 0.00448 | 1.189 mPa·s | – | 0.943 mPa·s | 0.8499 mPa·s | – | – | –
x1 = 0.005377 | 1.236 mPa·s | 1.094 mPa·s | 0.9762 mPa·s | 0.8796 mPa·s | 0.7968 mPa·s | 0.7274 mPa·s | 0.6684 mPa·s
x1 = 0.006709 | 1.297 mPa·s | 1.148 mPa·s | 1.024 mPa·s | – | – | – | –
x1 = 0.00893 | 1.418 mPa·s | 1.252 mPa·s | 1.115 mPa·s | – | – | – | –
x1 = 0.0111 | 1.548 mPa·s | 1.364 mPa·s | 1.212 mPa·s | – | – | – | –
x1 = 0.0133 | 1.696 mPa·s | 1.491 mPa·s | 1.322 mPa·s | – | – | – | –
x1 = 0.0155 | 1.854 mPa·s | 1.627 mPa·s | 1.44 mPa·s | – | – | – | –
x1 = 0.0177 | 2.031 mPa·s | 1.777 mPa·s | 1.57 mPa·s | – | – | – | –
x1 = 0.01986 | 2.226 mPa·s | 1.943 mPa·s | 1.711 mPa·s | – | – | – | –
x1 = 0.02202 | 2.436 mPa·s | 2.115 mPa·s and 2.121 mPa·s | – | – | – | – | –
x1 = 0.02418 | 2.662 mPa·s | 2.312 mPa·s | 2.027 mPa·s | – | – | – | –
x1 = 0.02631 | 2.89 mPa·s | 2.509 mPa·s | 2.196 mPa·s | – | – | – | –
x1 = 0.03893 | – | – | – | – | – | 2.575 mPa·s | –
